Activity calls are given as the source filed them. The rule behind the calls is not given here.
Key:
Format in all cases: functional, cell-based
HT-29 = test: Antiproliferative activity against HT29 cell line; conditions: Homo sapiens
A549 = test: Antiproliferative activity against A549 cell line; conditions: Homo sapiens
V79 = test: Antiproliferative activity against V79 cell line; conditions: Cricetulus griseus
L1210 = test: Antiproliferative activity against L1210 cell line; conditions: Mus musculus

Row | Structure (SMILES) | IC50 (HT-29) | IC50 (A549) | IC50 (V79) | Activity (L1210)
1 | O=C(Nc1ccc2cc3ccccc3nc2c1COC(=O)OCc1ccc([N+](=O)[O-])cc1)OCc1ccc([N+](=O)[O-])cc1 | 9 µM | > 10 µM | > 10 µM | –
2 | Nc1ccc2cc3ccccc3nc2c1CO | – | – | – | Active
3 | CCOC(=O)Nc1ccc2cc3ccccc3nc2c1COC(=O)OCC | 4.5 µM | – | – | –
4 | O=C(Nc1ccc2cc3ccccc3nc2c1CO)OCc1ccc([N+](=O)[O-])cc1 | 2.5 µM | 3.5 µM | 3.5 µM | –
